Key:
[1] = tested on: Strep. faec. L 80; experiment: agar serial dilution test; format: cell-based, Streptococcus faecalis; details: Enterococcus faecalis; agar serial dilution, 24 hours, 37° C.; read-out: minimal inhibitory concentration (MIC)
[2] = tested on: Dipl.pneum. L 54; experiment: agar serial dilution test; format: cell-based, Diplococcus pneumoniae; details: Streptococcus pneumoniae; agar serial dilution, 24 hours, 37° C.; read-out: minimal inhibitory concentration (MIC)
[3] = tested on: Kleb.pneum. A 809; experiment: agar serial dilution test; format: cell-based, Klebsiella pneumoniae; details: Klebsiella pneumoniae; agar serial dilution, 24 hours, 37° C.; read-out: minimal inhibitory concentration (MIC)
[4] = tested on: Esch.coli U 20; experiment: agar serial dilution test; format: cell-based, Escherichia coli; details: Escherichia coli, U20; agar serial dilution, 24 hours, 37° C.; read-out: minimal inhibitory concentration (MIC)
[5] = tested on: Pseud.aerug. Wyeth A 1058; experiment: agar serial dilution test; format: cell-based; details: agar serial dilution, 24 hours, 37° C.; read-out: minimal inhibitory concentration (MIC)
[6] = tested on: Prot.mirab. A 1200; experiment: agar serial dilution test; format: cell-based, Proteus mirabilis; details: Proteus mirabilis, 24 h, agar serial dilution, 24 hours, 37° C.; read-out: minimal inhibitory concentration (MIC)
[7] = tested on: Actinob.equ. T 3; experiment: agar serial dilution test; format: cell-based; details: 24 hours, 37° C., read-out: minimal inhibitory concentration (MIC)
[8] = tested on: Staph.aureus A 2001; experiment: micro serial dilution test; format: cell-based, Staphylococcus aureus; details: Staphylococcus aureus, A2001, 18 h, micro serial dilution (in brackets), about 18 hours, 30° C. or 37° C.; read-out: minimal inhibitory concentration (MIC)
[9] = tested on: Klebsiella pneumoniae A 265; experiment: protection test; format: in vivo; details: i.p.
[10] = tested on: Staph.aureus A 355; experiment: agar serial dilution test; details: Staphylococcus aureus, A355, 24 h, read-out: minimal inhibitory concentration (MIC), agar serial dilution, 24 hours, 37° C.; penicillinase-producing strain

## Cc1noc(CC(=O)N[C@@H]2C(=O)N3C(C(=O)O)=C(CSc4nnnn4C)CS[C@H]23)n1 [Compound G, sodium-7[(3-methyl-1,2,4-oxadiazol-5-yl)-acetamido] 3 [1-methyl-tetrazol-5-yl-mercaptomethyl] 3-cephem-4-carboxylate]
[1]
  MIC: 50 mg/L
[2]
  MIC: 0.5 mg/L
[3]
  MIC: 0.5 mg/L
[4]
  MIC: 0.75 mg/L
[5]
  MIC: 100 mg/L
[6]
  MIC: 25 mg/L
[7]
  MIC: 0.5 mg/L
[8]
  MIC: 0.6 mg/L
[9]; Klebsiella pneumoniae, A265, ip, protection test
  ED50: 86 mg/kg
[9]; reference Cefalotin
  Potency ratio: 1,09
[10]
  MIC: 1 mg/L
